Source: publication PMC10743971, “MP Allosterically Activates AMPK to Enhance ABCA1 Stability by Retarding the Calpain-Mediated Degradation Pathway” (International Journal of Molecular Sciences, 2023)

Assays:
AMPK (AMPKα1β1γ1) [1] = target: T1, AMPK (AMPKα1β1γ1) (Rattus norvegicus, UniProt P80385); assay: STD-NMR and NMR competition titration against MP; assay type: binding
T1 construct: gene Prkag1; recombinant full-length AMPKα1β1γ1 heterotrimer, 6×His tag at the N-terminal end of the α-subunit; with AMPK α1 (Prkaa1) and β1 (Prkab1) subunits
T1 sequence (P80385 whole entry): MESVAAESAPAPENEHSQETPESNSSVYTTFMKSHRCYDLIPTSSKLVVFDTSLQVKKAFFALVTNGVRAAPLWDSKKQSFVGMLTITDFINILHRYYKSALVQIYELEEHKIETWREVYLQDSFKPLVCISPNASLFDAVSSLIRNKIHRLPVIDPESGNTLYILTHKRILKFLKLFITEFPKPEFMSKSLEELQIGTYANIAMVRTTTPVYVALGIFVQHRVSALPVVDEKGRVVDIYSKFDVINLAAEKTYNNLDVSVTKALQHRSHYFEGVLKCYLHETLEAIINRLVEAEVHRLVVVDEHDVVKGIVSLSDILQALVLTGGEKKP
T1 sequence (P54645 whole entry partner): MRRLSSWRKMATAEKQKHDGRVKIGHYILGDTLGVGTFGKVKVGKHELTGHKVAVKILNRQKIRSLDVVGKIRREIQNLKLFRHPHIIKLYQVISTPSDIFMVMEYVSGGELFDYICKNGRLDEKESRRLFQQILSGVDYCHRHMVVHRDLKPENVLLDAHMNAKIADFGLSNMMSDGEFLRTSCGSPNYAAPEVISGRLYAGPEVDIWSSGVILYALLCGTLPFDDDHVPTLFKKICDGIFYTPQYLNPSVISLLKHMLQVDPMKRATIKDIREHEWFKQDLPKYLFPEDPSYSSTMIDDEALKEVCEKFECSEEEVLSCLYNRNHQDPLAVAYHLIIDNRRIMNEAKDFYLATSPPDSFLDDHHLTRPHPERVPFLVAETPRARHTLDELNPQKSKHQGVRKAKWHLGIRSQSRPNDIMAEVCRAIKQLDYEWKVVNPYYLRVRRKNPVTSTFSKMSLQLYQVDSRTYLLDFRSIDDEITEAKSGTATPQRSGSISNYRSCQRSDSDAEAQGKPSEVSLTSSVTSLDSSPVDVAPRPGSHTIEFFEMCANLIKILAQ
T1 sequence (P80386 2-270 partner): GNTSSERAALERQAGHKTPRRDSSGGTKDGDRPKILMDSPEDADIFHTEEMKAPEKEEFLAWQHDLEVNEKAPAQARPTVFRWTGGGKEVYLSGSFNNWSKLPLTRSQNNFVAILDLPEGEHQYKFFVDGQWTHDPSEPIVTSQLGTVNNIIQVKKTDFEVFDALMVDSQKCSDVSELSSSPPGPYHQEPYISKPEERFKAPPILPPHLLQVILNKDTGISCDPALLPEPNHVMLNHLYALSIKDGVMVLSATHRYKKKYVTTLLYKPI

AMPK (AMPKα1β1γ1) [2] = target: T1, AMPK (AMPKα1β1γ1); assay: MST (Kd […]); ITC (Kd […]); STD-NMR; CD; assay type: binding

Structure (SMILES) | STD-NMR and NMR competition titration against MP (AMPK (AMPKα1β1γ1) [1]) | Kd (AMPK (AMPKα1β1γ1) [2]) [µM]
Nc1ncnc2c1ncn2[C@@H]1O[C@H](COP(=O)(O)O)[C@@H](O)[C@H]1O [AMP, adenosine monophosphate] | adenosine monophosphate (AMP) and MP bind directly to AMPK | –
O=P(O)(O)OC[C@H]1O[C@@H](n2cnc3c(Nc4cccc(O)c4)ncnc32)[C@H](O)[C@@H]1O [MP, ((2R,3S,4R,5R)-3,4-dihydroxy-5-(6-((3-hydroxyphenyl)amino)-9H-purin-9-yl)tetrahydrofuran-2-yl) methyl dihydrogen phosphate] | – | 4.27
